# According to article PMC9571433, “Design, Synthesis, Anti-Varicella-Zoster and Antimicrobial Activity of (Isoxazolidin-3-yl)Phosphonate Conjugates of N1-Functionalised Quinazoline-2,4-Diones” (Molecules, 2022):
# Like-named read-outs stand apart in the source and are kept apart here.
# Experiments:
# [1] = test system: TK+ VZV OKA strain; assay: microbe, parasite or virus in culture; assay type: cell-based, varicella-zoster virus; details: Human alphaherpesvirus 3, HEL, read-out: Antiviral Activity EC50 TK+ VZV Strain (OKA)
# [2] = test system: E. coli ATCC 25922; assay: Broth microdilution MIC/MBC; details: Escherichia coli
# [3] = test system: S. aureus ATCC 2593; assay: Broth microdilution MIC/MBC; details: Staphylococcus aureus, ATCC2593, 24 h, read-out: MIC = MBC
# [4] = test system: E. faecalis ATCC 29212; assay: Broth microdilution MIC/MBC; details: Enterococcus faecalis, ATCC29212, 24 h
# [5] = test system: P. aeruginosa ATCC 27853; assay: Broth microdilution MIC/MBC; details: Pseudomonas aeruginosa, ATCC27853, 24 h, read-out: MIC = MBC
# [6] = test system: A. brasiliensis ATCC 16404; assay: Broth microdilution MIC/MBC (antifungal); details: Aspergillus brasiliensis
# [7] = test system: C. albicans ATCC 10241; assay: Broth microdilution MIC/MBC (antifungal); details: Candida albicans
# [8] = test system: B. cereus PCM 1948; assay: Broth microdilution MIC/MBC; details: Bacillus cereus
# [9] = test system: human embryonic lung (HEL) cells; details: minimum cytotoxic concentration causing microscopically detectable alteration of cell morphology
# [10] = test system: TK– VZV 07-1 strain; assay: microbe, parasite or virus in culture; assay type: cell-based, varicella-zoster virus; details: Human alphaherpesvirus 3, HEL, read-out: Antiviral Activity EC50 TK– VZV Strain (07-1)
# [11] = test system: feline herpes viruses; set-up: method as in PMID 24906510, PMID 28763115, PMID 24219992; details: read-out: EC50 toward feline herpes viruses; cited from earlier work
# [12] = ATCC25922, 24 h, read-out: MIC = MBC
# [13] = ATCC16404, 72 h, read-out: MIC = MBC
# [14] = PCM1948, 24 h, read-out: MIC = MBC
SMILES,EC50 [1],"MIC [2, 12]",MIC [3],MBC [4],MIC [4],MIC [5],"MIC [6, 13]","MIC ([7]; ATCC10241, read-out: MIC = MBC)","MIC [8, 14]",Cytotoxicity Cell Morphology MCC [9],EC50 [10],MIC ([2]; ATCC25922),MIC ([8]; PCM1948),MBC ([6]; ATCC16404),MIC ([6]; ATCC16404),MBC ([7]; ATCC10241),MIC ([7]; ATCC10241),EC50 [11]
"CCOP(=O)(OCC)[C@H]1C[C@H](Cn2c(=O)c3ccccc3n(Cc3ccccc3)c2=O)ON1Cc1ccccc1 (relative stereo) [Diethyl trans-(2-benzyl-5-((1-benzyl-2,4-dioxo-1,4-dihydroquinazolin-3(2H)-yl)methyl)isoxazolidin-3-yl)phosphonate]",14.5 µM,2500 µg/mL,5000 µg/mL,> 5000 µg/mL,> 5000 µg/mL,2500 µg/mL,5000 µg/mL,5000 µg/mL,1250 µg/mL,100 μM,34.2 µM,,,,,,,
"CCOP(=O)(OCC)[C@H]1C[C@H](Cn2c(=O)c3ccccc3n(Cc3ccccc3F)c2=O)ON1C (relative stereo) [Diethyl trans-(5-((1-(2-fluorobenzyl)-2,4-dioxo-1,4-dihydroquinazolin-3(2H)-yl)methyl)-2-methylisoxazolidin-3-yl)phosphonate]",31.7 µM,2500 µg/mL,5000 µg/mL,> 5000 µg/mL,> 5000 µg/mL,2500 µg/mL,5000 µg/mL,2500 µg/mL,1250 µg/mL,>100 μM,58.5 µM,,,,,,,
"CCOP(=O)(OCC)[C@H]1C[C@H](Cn2c(=O)c3ccccc3n(Cc3ccc(F)cc3)c2=O)ON1C (relative stereo) [Diethyl trans-(5-((1-(4-fluorobenzyl)-2,4-dioxo-1,4-dihydroquinazolin-3(2H)-yl)methyl)-2-methylisoxazolidin-3-yl)phosphonate]",58.5 µM,2500 µg/mL,5000 µg/mL,> 5000 µg/mL,> 5000 µg/mL,2500 µg/mL,5000 µg/mL,2500 µg/mL,1250 µg/mL,>100 μM,38.1 µM,,,,,,,
"C=CCn1c(=O)c2ccccc2n(Cc2ccccc2)c1=O [24a, 3-Allyl-1-benzylquinazoline-2,4-dione]",100 µM,2500 µg/mL,5000 µg/mL,> 5000 µg/mL,> 5000 µg/mL,2500 µg/mL,5000 µg/mL,5000 µg/mL,5000 µg/mL,>100 μM,100 µM,,,,,,,
"C=CCn1c(=O)c2ccccc2n(Cc2ccccc2F)c1=O [24b, 3-Allyl-1-(2-fluorobenzyl)quinazoline-2,4-dione]",> 100 µM,2500 µg/mL,5000 µg/mL,> 5000 µg/mL,> 5000 µg/mL,2500 µg/mL,5000 µg/mL,5000 µg/mL,2500 µg/mL,>100 μM,64.5 µM,,,,,,,
"C=CCn1c(=O)c2ccccc2n(Cc2cccc(F)c2)c1=O [24c, 3-Allyl-1-(3-fluorobenzyl)quinazoline-2,4-dione]",> 100 µM,1250 µg/mL,5000 µg/mL,> 5000 µg/mL,> 5000 µg/mL,2500 µg/mL,5000 µg/mL,2500 µg/mL,5000 µg/mL,>100 μM,> 100 µM,1250 µg/mL,,,,,,
"C=CCn1c(=O)c2ccccc2n(Cc2ccc(F)cc2)c1=O [24d, 3-Allyl-1-(4-fluorobenzyl)quinazoline-2,4-dione]",54.7 µM,2500 µg/mL,5000 µg/mL,> 5000 µg/mL,> 5000 µg/mL,2500 µg/mL,5000 µg/mL,2500 µg/mL,5000 µg/mL,100 μM,> 20 µM,,,,,,,
"NCC[C@H](O)C(=O)N[C@@H]1C[C@H](N)[C@@H](O[C@H]2O[C@H](CN)[C@@H](O)[C@H](O)[C@H]2O)[C@H](O)[C@H]1O[C@H]1O[C@H](CO)[C@@H](O)[C@H](N)[C@H]1O [Amikacin, reference compound]",,0.625 µg/mL,1 µg/mL,,0.625 µg/mL,20 µg/mL,,,20 µg/mL,,,,20 µg/mL,,,,,
"O=c1[nH]c(=O)n([C@H]2C[C@H](O)[C@@H](CO)O2)cc1/C=C/Br [Brivudin, reference compound]",0.026 µM,,,,,,,,,>300 μM,12 µM,,,,,,,
"CCOP(=O)(OCC)C1CC(Cn2c(=O)c3ccccc3n(Cc3ccccc3F)c2=O)ON1Cc1ccccc1 (stereo not drawn) [Diethyl trans-(2-benzyl-5-((1-(2-fluorobenzyl)-2,4-dioxo-1,2-dihydroquinazolin-3(2H)-yl)methyl)isoxazolidin-3-yl)phosphonate]",12.6 µM,2500 µg/mL,5000 µg/mL,> 5000 µg/mL,> 5000 µg/mL,2500 µg/mL,5000 µg/mL,2500 µg/mL,1250 µg/mL,100 μM,27.6 µM,,,,,,,
"CCOP(=O)(OCC)C1CC(Cn2c(=O)c3ccccc3n(Cc3cccc(F)c3)c2=O)ON1Cc1ccccc1 (stereo not drawn) [Diethyl trans-(2-benzyl-5-((1-(3-fluorobenzyl)-2,4-dioxo-1,2-dihydroquinazolin-3(2H)-yl)methyl)isoxazolidin-3-yl)phosphonate]",20 µM,1250 µg/mL,5000 µg/mL,> 5000 µg/mL,> 5000 µg/mL,2500 µg/mL,5000 µg/mL,2500 µg/mL,2500 µg/mL,20 μM,14.5 µM,1250 µg/mL,,,,,,
"CCOP(=O)(OCC)C1CC(Cn2c(=O)c3ccccc3n(Cc3ccc(F)cc3)c2=O)ON1Cc1ccccc1 (stereo not drawn) [Diethyl trans-(2-benzyl-5-((1-(4-fluorobenzyl)-2,4-dioxo-1,2-dihydroquinazolin-3(2H)-yl)methyl)isoxazolidin-3-yl)phosphonate]",20 µM,1250 µg/mL,5000 µg/mL,> 5000 µg/mL,> 5000 µg/mL,2500 µg/mL,5000 µg/mL,2500 µg/mL,1250 µg/mL,100 μM,20 µM,1250 µg/mL,,,,,,
"OC(Cn1cncn1)(Cn1cncn1)c1ccc(F)cc1F [Fluconazole, reference compound]",,,,,,,,,,,,,,> 5 µg/mL,5 µg/mL,> 5 µg/mL,5 µg/mL,
"CCOP(=O)(OCC)C1CC(Cn2c(=O)c3ccccc3n(Cc3ccccc3)c2=O)ON1C (stereo not drawn) [cis-20a/trans-20a (10:90), Diethyl trans-5-((1-benzyl-2,4-dioxo-1,4-dihydroquinazolin-3(2H)-yl)methyl)-2-methylisoxazolidin-3-yl)phosphonate]",31.7 µM,1250 µg/mL,2500 µg/mL,> 5000 µg/mL,> 5000 µg/mL,2500 µg/mL,5000 µg/mL,2500 µg/mL,1250 µg/mL,>100 μM,100 µM,1250 µg/mL,,,,,,
CCOP(=O)(CCCn1cc(Cn2c(=O)n(C(=O)c3ccccc3)c(=O)c3ccccc32)nn1)OCC [compound 7],,,,,,,,,,,,,,,,,,4 µM
